Format in all cases: functional, cell-based
One assay has as its system HepG2. In words: Cytotoxicity against human HepG2 cells after 44 hrs by MTT assay.
For another assay, the system named is HCT-116. In words: Cytotoxicity against human HCT116 cells after 44 hrs by MTT assay.
The subject of another assay is MDA-MB-231. In words: Cytotoxicity against human MDA-MB-231 cells after 44 hrs by MTT assay. The following applies: MDA-MB-231, 44 h.
The test system of another assay is A549. The experiment in a line: Cytotoxicity against human A549 cells after 44 hrs by MTT assay.
In the next assay the test system is NCI-H292. The experiment in a line: Cytotoxicity against human NCI-H292 cells after 44 hrs by MTT assay. A general note: Formazan colour is commonly taken as a measure of viable cells.
The subject of a further assay is MCF7. The experiment in a line: Cytotoxicity against human MCF7 cells after 44 hrs by MTT assay. The following applies: MCF7, 44 h.

Among the data in ChEMBL document CHEMBL4627392, “Streptomyces albogriseolus SY67903 Produces Eunicellin Diterpenoids Structurally Similar to Terpenes of the Gorgonian Muricella sibogae, the Bacterial Source” (J Nat Prod, 2020) are IC50 and Activity values, retold here.

SMILES strings stand for the structures. Activity calls are given as the source filed them. The rule behind the calls is not given here. A value given as a limit tells only on which side of the number the result lay.

In the case of `C=C1CC[C@@H](C(C)C)[C@H]2/C=C(/C(=O)OC)CC/C=C(\C(=O)O)[C@H](O)C[C@H]12`, the IC50 (usually the concentration at which inhibition is half-maximal) with HepG2 (HepG2, 44 h) is more than 100 µM; with HCT-116 (HCT-116, 44 h) it was more than 100 µM; in the assay on MDA-MB-231, more than 100 µM; in the assay with A549 (A549, 44 h), more than 100 µM; in the assay on NCI-H292 (NCI-H292, 44 h), more than 100 µM; in the assay with MCF7 it was more than 100 µM.
Take `C=C1CCC(=C(C)C)[C@H]2/C=C(/C(=O)OC)CC/C=C(\C(=O)O)[C@H](O)C[C@H]12`: the outcome in the assay with HepG2, in the assay with HCT-116, in the assay with A549 and with NCI-H292 was Active. Besides, the IC50 in the assay with MDA-MB-231 came out at 8.6 µM; in the assay on MCF7 it was 5.3 µM.
